Experimental data: ChEMBL document CHEMBL5055619, “Tetrahydrofuran-Based Transient Receptor Potential Ankyrin 1 (TRPA1) Antagonists: Ligand-Based Discovery, Activity in a Rodent Asthma Model, and Mechanism-of-Action via Cryogenic Electron Microscopy” (J Med Chem, 2021)
Converted amounts (≈) assume the structure as drawn.

What was measured:
[1] = Metabolic stability in rat liver microsomes assessed as clearance by LC/MS-MS analysis; assay type: ADME, Microsome
[2] = Metabolic stability in human liver microsomes assessed as clearance by LC/MS-MS analysis; assay type: ADME, Microsome
[3] = Antagonist activity at human TRPA1 expressed in CHO cells assessed as cinnamaldehyde-induced calcium flux measured after 90 mins by FLIPR assay; assay type: cell-based; details: 1.5 h
[4] = Lipophilicity, logD of compound; assay type: physicochemical; details: octanol/water
[5] = Unbound Volume of distribution at steady state in rat at 1 mg/kg; assay type: ADME, organism-based; details: in vivo
[6] = Apparent permeability across apical to basolateral side in MDCK cells; assay type: ADME, cell-based, Canis lupus familiaris; details: dog, read-out: permeability
[7] = Oral bioavailability in rat at 1 mg/kg; assay type: ADME, organism-based; details: in vivo
[8] = Metabolic stability in rat hepatocytes assessed as clearance; assay type: ADME, cell-based, Hepatocyte
[9] = Antagonist activity at rat TRPA1 expressed in CHO cells assessed as cinnamaldehyde-induced calcium flux measured after 90 mins by FLIPR assay; assay type: cell-based; details: 1.5 h
[10] = Volume of distribution at steady stare in rat at 1 mg/kg; assay type: ADME, organism-based; details: in vivo, read-out: Vdss
[11] = Kinetic solubility of the compound; assay type: physicochemical; details: for solubility kinetic: read-out: Kinetic_solubility
[12] = target: Transient receptor potential cation channel subfamily A member 1 (Rattus norvegicus) (UniProt Q6RI86); assay: In vivo antagonist activity at TRPA1 in AITC-induced rat pain model assessed as nocifensive behaviour at 2.94 ratio of free plasma concentration to IC50 for rat […]; assay type: functional, organism-based; details: concentration not given here
[13] = target: Transient receptor potential cation channel subfamily A member 1 (Rattus norvegicus) (UniProt Q6RI86); assay: In vivo antagonist activity at TRPA1 in AITC-induced rat pain model assessed as nocifensive behaviour at 0.86 ratio of free plasma concentration to IC50 for rat […]; assay type: functional, organism-based; details: concentration not given here
[14] = Protein binding in rat plasma; assay type: ADME, cell-free; details: read-out: PPB (converted)
[15] = Clearance in rat at 1 mg/kg; assay type: ADME, organism-based; details: in vivo
[16] = Protein binding in human plasma; assay type: ADME, cell-free; details: read-out: PPB (converted)
[17] = Half life in rat at 1 mg/kg; assay type: ADME, organism-based; details: in vivo
[18] = target: Transient receptor potential cation channel subfamily A member 1 (Rattus norvegicus) (UniProt Q6RI86); assay: In vivo antagonist activity at TRPA1 in AITC-induced rat pain model assessed as nocifensive behaviour at 12.67 ratio of free plasma concentration to IC50 for rat […]; assay type: functional, organism-based; details: concentration not given here
[19] = organism: Rattus norvegicus; assay: Antinociceptive activity against AITC-induced rat pain model assessed as nocifensive behaviour by measuring unbound concentration; assay type: functional, organism-based
[20] = target: Transient receptor potential cation channel subfamily A member 1 (Rattus norvegicus) (UniProt Q6RI86); assay: In vivo antagonist activity at TRPA1 in AITC-induced rat pain model assessed as nocifensive behaviour at 43.69 ratio of free plasma concentration to IC50 for rat […]; assay type: functional, organism-based; details: concentration not given here
[21] = target: Transient receptor potential cation channel subfamily A member 1 (Rattus norvegicus) (UniProt Q6RI86); assay: In vivo antagonist activity at TRPA1 in AITC-induced rat pain model assessed as nocifensive behaviour at 8 ratio of free plasma concentration to IC50 for rat […]; assay type: functional, organism-based
[22] = target: Transient receptor potential cation channel subfamily A member 1 (Rattus norvegicus) (UniProt Q6RI86); assay: In vivo antagonist activity at TRPA1 in AITC-induced rat pain model assessed as nocifensive behaviour at 44.77 ratio of free plasma concentration to IC50 for rat […]; assay type: functional, organism-based; details: concentration not given here
[23] = target: Transient receptor potential cation channel subfamily A member 1 (Rattus norvegicus) (UniProt Q6RI86); assay: In vivo antagonist activity at TRPA1 in AITC-induced rat pain model assessed as nocifensive behaviour at 0.76 ratio of free plasma concentration to IC50 for rat […]; assay type: functional, organism-based; details: concentration not given here
[24] = target: Transient receptor potential cation channel subfamily A member 1 (Rattus norvegicus) (UniProt Q6RI86); assay: In vivo antagonist activity at TRPA1 in AITC-induced rat pain model assessed as nocifensive behaviour at 21.57 ratio of free plasma concentration to IC50 for rat […]; assay type: functional, organism-based; details: concentration not given here
[25] = target: Transient receptor potential cation channel subfamily A member 1 (Rattus norvegicus) (UniProt Q6RI86); assay: In vivo antagonist activity at TRPA1 in AITC-induced rat pain model assessed as nocifensive behaviour at 0.17 ratio of free plasma concentration to IC50 for rat […]; assay type: functional, organism-based; details: concentration not given here
[26] = target: Transient receptor potential cation channel subfamily A member 1 (Rattus norvegicus) (UniProt Q6RI86); assay: In vivo antagonist activity at TRPA1 in AITC-induced rat pain model assessed as nocifensive behaviour at 0.10 ratio of free plasma concentration to IC50 for rat […]; assay type: functional, organism-based; details: concentration not given here
[27] = target: Transient receptor potential cation channel subfamily A member 1 (Rattus norvegicus) (UniProt Q6RI86); assay: In vivo antagonist activity at TRPA1 in AITC-induced rat pain model assessed as nocifensive behaviour at 3.17 ratio of free plasma concentration to IC50 for rat […]; assay type: functional, organism-based; details: concentration not given here
[28] = target: Transient receptor potential cation channel subfamily A member 1 (Rattus norvegicus) (UniProt Q6RI86); assay: In vivo antagonist activity at TRPA1 in AITC-induced rat pain model assessed as nocifensive behaviour at 0.53 ratio of free plasma concentration to IC50 for rat […]; assay type: functional, organism-based; details: concentration not given here
[29] = Stability in rat plasma assessed as compound remaining after 4 hrs; assay type: ADME, cell-free; details: read-out: Stability
[30] = Stability in human plasma assessed as compound remaining after 4 hrs; assay type: ADME, cell-free; details: read-out: Stability
[31] = target: Transient receptor potential cation channel subfamily A member 1 (Rattus norvegicus) (UniProt Q6RI86); assay: In vivo antagonist activity at TRPA1 in AITC-induced rat pain model assessed as nocifensive behaviour at 2.97 ratio of free plasma concentration to IC50 for rat […]; assay type: functional, organism-based; details: concentration not given here
[32] = target: Transient receptor potential cation channel subfamily A member 1 (Rattus norvegicus) (UniProt Q6RI86); assay: In vivo antagonist activity at TRPA1 in AITC-induced rat pain model assessed as nocifensive behaviour at 1.21 ratio of free plasma concentration to IC50 for rat […]; assay type: functional, organism-based; details: concentration not given here
[33] = target: Transient receptor potential cation channel subfamily A member 1 (Rattus norvegicus) (UniProt Q6RI86); assay: In vivo antagonist activity at TRPA1 in AITC-induced rat pain model assessed as nocifensive behaviour at 0.36 ratio of free plasma concentration to IC50 for rat […]; assay type: functional, organism-based; details: concentration not given here
[34] = target: Transient receptor potential cation channel subfamily A member 1 (Rattus norvegicus) (UniProt Q6RI86); assay: In vivo antagonist activity at TRPA1 in AITC-induced rat pain model assessed as nocifensive behaviour at 4.45 ratio of free plasma concentration to IC50 for rat […]; assay type: functional, organism-based; details: concentration not given here

Sequence of Transient receptor potential cation channel subfamily A member 1 (Rattus norvegicus) (Q6RI86 whole entry): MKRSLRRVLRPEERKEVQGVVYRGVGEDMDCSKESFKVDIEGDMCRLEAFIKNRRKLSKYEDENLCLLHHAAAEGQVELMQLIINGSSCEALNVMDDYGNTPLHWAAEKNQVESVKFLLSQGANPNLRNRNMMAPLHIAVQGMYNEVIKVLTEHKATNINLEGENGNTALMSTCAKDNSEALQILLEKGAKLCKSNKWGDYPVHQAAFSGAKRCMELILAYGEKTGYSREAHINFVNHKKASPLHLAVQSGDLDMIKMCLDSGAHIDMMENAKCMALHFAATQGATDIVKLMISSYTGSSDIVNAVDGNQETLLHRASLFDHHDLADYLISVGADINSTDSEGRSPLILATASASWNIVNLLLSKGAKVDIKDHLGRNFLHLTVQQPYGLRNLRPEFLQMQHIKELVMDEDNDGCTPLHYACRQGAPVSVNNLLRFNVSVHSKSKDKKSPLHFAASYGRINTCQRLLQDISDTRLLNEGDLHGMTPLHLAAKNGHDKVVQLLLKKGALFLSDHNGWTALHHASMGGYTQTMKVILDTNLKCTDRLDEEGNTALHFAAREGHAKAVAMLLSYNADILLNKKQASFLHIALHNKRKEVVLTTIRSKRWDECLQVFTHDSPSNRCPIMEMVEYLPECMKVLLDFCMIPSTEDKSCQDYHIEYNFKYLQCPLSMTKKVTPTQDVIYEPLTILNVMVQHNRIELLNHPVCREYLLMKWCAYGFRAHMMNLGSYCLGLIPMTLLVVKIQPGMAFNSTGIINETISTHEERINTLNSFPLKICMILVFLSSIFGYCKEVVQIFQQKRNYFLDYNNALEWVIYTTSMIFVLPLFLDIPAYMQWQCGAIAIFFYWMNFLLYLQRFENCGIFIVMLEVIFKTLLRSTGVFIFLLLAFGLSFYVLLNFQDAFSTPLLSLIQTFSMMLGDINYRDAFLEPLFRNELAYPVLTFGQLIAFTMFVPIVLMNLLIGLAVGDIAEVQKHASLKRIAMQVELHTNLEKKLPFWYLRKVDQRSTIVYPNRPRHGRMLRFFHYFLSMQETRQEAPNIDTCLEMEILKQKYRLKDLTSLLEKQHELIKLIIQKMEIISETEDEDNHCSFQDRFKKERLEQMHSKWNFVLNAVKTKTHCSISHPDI

O=c1c2cccnc2ncn1Cc1nc([C@H]2[C@@H]3CN(c4cc(Cl)ccn4)C[C@@H]32)no1
CLhep predicted [1]: 13 mL/min/kg
CLhep predicted [2]: 10 mL/min/kg
IC50 [3]: 75 nM
logD [4]: 2.4

Cn1cnc2ncn(Cc3nn([C@H]4C[C@H](Oc5cccc(Cl)c5)C4)c(=O)o3)c(=O)c21
CLhep predicted [1]: 11 mL/min/kg
CLhep predicted [2]: 6 mL/min/kg
IC50 [3]: 7.3 nM
logD [4]: 2.2

Cn1cnc2ncn(Cc3nc([C@H]4[C@@H]5CN(c6cc(Cl)ccn6)C[C@@H]54)no3)c(=O)c21
Vduss [5]: 20.7 L/kg
Papp A→B [6]: 17.3 ×10⁻⁶ cm/s
bioavailability [7]: 39%
CLhep predicted [8]: 36 mL/min/kg
IC50 [9]: 18 nM
IC50 [3]: 25 nM
Vd [10]: 1.8 L/kg
solubility kinetic [11]: 97 µM (≈ 41.2 µg/mL)
inhibition [12]: 64%
inhibition [13]: 59%
fraction unbound [14]: 0.087
clearance [15]: 12 mL/min/kg
fraction unbound [16]: 0.07
half-life [17]: 1.8 h
logD [4]: 1.8
inhibition [18]: 48%
EC50 [19]: 220 nM
inhibition [20]: 94%

Cn1cnc2ncn(Cc3nc(CCc4ccc(Cl)cc4)no3)c(=O)c21
CLhep predicted [1]: 35 mL/min/kg
CLhep predicted [2]: 12 mL/min/kg
IC50 [9]: 80 nM
IC50 [3]: 100 nM
logD [4]: 1.9

Cn1cnc2ncn(Cc3nn(C[C@H](F)c4ccc(Cl)cc4)c(=O)o3)c(=O)c21
Vduss [5]: 3.14 L/kg
CLhep predicted [1]: 28 mL/min/kg
CLhep predicted [2]: 5.6 mL/min/kg
Papp A→B [6]: 9 ×10⁻⁶ cm/s
bioavailability [7]: 53%
CLhep predicted [8]: 24 mL/min/kg
IC50 [9]: 18 nM
IC50 [3]: 20 nM
inhibition [21]: 20%
Vd [10]: 1.3 L/kg
solubility kinetic [11]: 120 µM (≈ 48.6 µg/mL)
clearance [15]: 17 mL/min/kg
fraction unbound [16]: 0.334
half-life [17]: 1.4 h
inhibition [22]: 100%
inhibition [23]: 20%
inhibition [24]: 37%
logD [4]: 1.2
EC50 [19]: 390 nM

Cn1cnc2ncn(Cc3nc([C@H]4[C@@H]5C=C(c6ccccc6)C[C@@H]54)no3)c(=O)c21
IC50 [3]: 1.9 nM
solubility kinetic [11]: 1.4 µM (≈ 0.541 µg/mL)
logD [4]: 2.7

Cn1cnc2ncn(Cc3nn([C@H]4CC[C@H](c5ccc(Cl)cc5)CC4)c(=O)o3)c(=O)c21
CLhep predicted [1]: 19 mL/min/kg
CLhep predicted [2]: 4.3 mL/min/kg
IC50 [3]: > 20000 nM
logD [4]: 2.6

Cn1cnc2ncn(Cc3nn([C@@H]4CC[C@@H](c5ccc(Cl)cc5)C4)c(=O)o3)c(=O)c21
CLhep predicted [1]: 36 mL/min/kg
CLhep predicted [2]: 12 mL/min/kg
IC50 [3]: 9.6 nM
logD [4]: 2.4

Cc1ncn2ncn(Cc3nc([C@H]4[C@@H]5CN(c6cccc(Cl)c6)C[C@@H]54)no3)c(=O)c12
CLhep predicted [1]: 27 mL/min/kg
CLhep predicted [2]: 14 mL/min/kg
IC50 [3]: 50 nM
logD [4]: 2.6

Cc1cnn2ncn(Cc3nc([C@H]4[C@@H]5CN(c6cccc(Cl)c6)C[C@@H]54)no3)c(=O)c12
Vduss [5]: 140 L/kg
CLhep predicted [1]: 32 mL/min/kg
CLhep predicted [2]: 15 mL/min/kg
Papp A→B [6]: 20.7 ×10⁻⁶ cm/s
bioavailability [7]: 32%
CLhep predicted [8]: 43 mL/min/kg
IC50 [9]: 8.2 nM
inhibition [25]: 36%
IC50 [3]: 8.1 nM
Vd [10]: 2.8 L/kg
solubility kinetic [11]: 13 µM (≈ 5.51 µg/mL)
inhibition [26]: 30%
inhibition [27]: 87%
fraction unbound [14]: 0.02
clearance [15]: 15 mL/min/kg
fraction unbound [16]: 0.009
half-life [17]: 2.5 h
logD [4]: 3
EC50 [19]: 6.2 nM
inhibition [28]: 63%

Cn1cnc2ncn(Cc3nn(CCOc4cccc(Cl)c4)c(=O)o3)c(=O)c21
CLhep predicted [1]: 34 mL/min/kg
CLhep predicted [2]: 11 mL/min/kg
IC50 [3]: 4600 nM
logD [4]: 1.3

Cn1cnc2ncn(Cc3nn([C@@H]4CO[C@@H](c5ccc(Cl)cc5)C4)c(=O)o3)c(=O)c21
CLhep predicted [1]: 23 mL/min/kg
CLhep predicted [2]: 9.5 mL/min/kg
IC50 [3]: 2 nM
remaining at 4 h [29]: 61%
remaining at 4 h [30]: 76%
logD [4]: 1.6

Cn1cnc2ncn(Cc3nn([C@@H]4CC[C@@H](Oc5cccc(F)c5)C4)c(=O)o3)c(=O)c21
CLhep predicted [1]: 24 mL/min/kg
CLhep predicted [2]: 8 mL/min/kg
IC50 [3]: 410 nM
logD [4]: 1.8

Cn1cnc2ncn(Cc3nc([C@H]4[C@@H]5C[C@H](c6ccccc6)C[C@@H]54)no3)c(=O)c21
IC50 [3]: 1900 nM
solubility kinetic [11]: 54 µM (≈ 21 µg/mL)
logD [4]: 2.7

Cn1cnc2ncn(Cc3nc([C@H]4[C@@H]5CN(c6cccc(Cl)c6)C[C@@H]54)no3)c(=O)c21
Vduss [5]: 128 L/kg
inhibition [31]: 99%
Papp A→B [6]: 15.5 ×10⁻⁶ cm/s
bioavailability [7]: 20%
CLhep predicted [8]: 35 mL/min/kg
IC50 [9]: 7.9 nM
IC50 [3]: 2.9 nM
Vd [10]: 2.3 L/kg
Kinetic_solubility [11]: 97 µM
fraction unbound [14]: 0.018
clearance [15]: 4.5 mL/min/kg
fraction unbound [16]: 0.011
half-life [17]: 6.4 h
inhibition [32]: 64%
inhibition [33]: 12%
logD [4]: 2.9
inhibition [34]: 99%
EC50 [19]: 7.9 nM

O=c1c2cccnc2cnn1Cc1nc([C@H]2[C@@H]3CN(c4cc(Cl)ccn4)C[C@@H]32)no1
CLhep predicted [1]: 27 mL/min/kg
CLhep predicted [2]: 14 mL/min/kg
IC50 [3]: 54 nM
logD [4]: 2.7

Cn1cnc2ncn(Cc3nc([C@@H]4CO[C@@H](c5ccc(F)cc5)C4)no3)c(=O)c21
CLhep predicted [1]: 9 mL/min/kg
CLhep predicted [2]: 4.3 mL/min/kg
IC50 [3]: 7.6 nM

Cn1cnc2ncn(Cc3nn(CCCOc4cccc(Cl)c4)c(=O)o3)c(=O)c21
CLhep predicted [1]: 44 mL/min/kg
CLhep predicted [2]: 16 mL/min/kg
IC50 [3]: 14 nM
logD [4]: 1.3

Cn1cnc2ncn(Cc3nc([C@@H]4[C@@H]5Cc6c(Cl)cccc6[C@@H]54)no3)c(=O)c21
IC50 [3]: 32 nM
solubility kinetic [11]: < 1 µM
logD [4]: 2.6
